In ChEMBL document CHEMBL1201862, “PubChem BioAssay data set” (2004):
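Tested at 5 concentrations; 48 h exposure; 96-well plates; endpoints linearly interpolated, else capped at highest concentration. GI50: concentration for 50% inhibition of growth.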 Active and inactive are the calls of the source. Rule as the data show it: active = GI50 up to about 1.1 µM and inactive = higher.

Columns and labels:
Experiment in all cases: NCI tumour cell line growth inhibition, 48 h
UACC-257 = system: UACC-257
786-0 = system: 786-0
UO-31 = system: UO-31
SN12C = system: SN12C
UACC-62 = system: UACC-62
M14 = system: M14
NCI-H522 = system: NCI-H522
HOP-92 = system: HOP-92
SF-539 = system: SF-539
IGROV-1 = system: IGROV-1
HL-60 = system: HL-60
CCRF-CEM = system: CCRF-CEM
LOX IMVI = system: LOX IMVI
OVCAR-4 = system: OVCAR-4
HOP-62 = system: HOP-62
SNB-75 = system: SNB-75
HT-29 = system: HT-29
COLO 205 = system: COLO 205
SK-MEL-5 = system: SK-MEL-5
HCT-15 = system: HCT-15

Measured: GI50

CC1CCC(=O)C(C(O)CC2CC(=O)N(c3ccccc3)C(=O)C2)C1 (stereo not given)
inactive: UACC-257 > 100 µM | 786-0 > 100 µM | UO-31 > 100 µM | SN12C > 100 µM | UACC-62 > 100 µM | M14 > 100 µM | NCI-H522 > 100 µM | HOP-92 > 100 µM | SF-539 > 100 µM | IGROV-1 > 100 µM | HL-60 > 100 µM | CCRF-CEM > 100 µM | LOX IMVI > 100 µM | OVCAR-4 > 100 µM | HOP-62 > 100 µM | SNB-75 > 100 µM | HT-29 > 100 µM | COLO 205 > 100 µM

[N-]=[N+]=CC(=O)CCC(NC(=O)C(CCC(=O)C=[N+]=[N-])NC(=O)CCC(N)C(=O)O)C(=O)O (stereo not given)
> 100 µM: HCT-15
inactive: SK-MEL-5 > 100 µM | UACC-257 > 100 µM | UO-31 > 100 µM | SN12C > 100 µM | UACC-62 > 100 µM | NCI-H522 > 100 µM | HOP-92 > 100 µM | SF-539 > 100 µM | IGROV-1 > 100 µM | HL-60 > 100 µM | CCRF-CEM > 100 µM | LOX IMVI > 100 µM | OVCAR-4 > 100 µM | HOP-62 > 100 µM | SNB-75 > 100 µM | HT-29 > 100 µM | COLO 205 > 100 µM

CC(=O)OC(C)C(=O)C1c2cccc(O)c2C(=O)c2c(O)cc(C)cc21 (stereo not given)
active: SK-MEL-5 0.357 µM | UACC-257 0.41 µM | 786-0 1.09 µM | UO-31 0.261 µM | SN12C 0.879 µM | HOP-92 0.288 µM | SF-539 0.254 µM | IGROV-1 0.478 µM | HL-60 0.308 µM | CCRF-CEM 0.711 µM | LOX IMVI 0.483 µM | OVCAR-4 0.452 µM | HOP-62 0.343 µM | SNB-75 0.52 µM
0.479 µM: HCT-15
inactive: NCI-H522 1.52 µM | HT-29 1.66 µM | COLO 205 1.65 µM

CCCNC(=O)C(C)C1CCC2(C)C=CC(=O)C(C)=C2C1O (stereo not given)
> 100 µM: HCT-15
inactive: SK-MEL-5 > 100 µM | UACC-257 > 100 µM | UO-31 > 100 µM | SN12C > 100 µM | UACC-62 > 100 µM | NCI-H522 > 100 µM | HOP-92 > 100 µM | SF-539 > 100 µM | IGROV-1 > 100 µM | HL-60 > 100 µM | CCRF-CEM > 100 µM | LOX IMVI > 100 µM | OVCAR-4 > 100 µM | HOP-62 > 100 µM | SNB-75 > 100 µM | HT-29 > 100 µM | COLO 205 > 100 µM

O=C1OC(c2ccccc2Br)=N/C1=C/c1ccccc1
29.9 µM: HCT-15
inactive: SK-MEL-5 35.2 µM | UACC-257 > 100 µM | UO-31 45.9 µM | UACC-62 37.1 µM | M14 18.6 µM | NCI-H522 26 µM | HOP-92 > 10 µM | SF-539 18.5 µM | IGROV-1 39.4 µM | HL-60 39 µM | CCRF-CEM 35 µM | LOX IMVI 21.7 µM | OVCAR-4 25.4 µM | HOP-62 21.5 µM | SNB-75 53.5 µM | HT-29 32.1 µM | COLO 205 > 10 µM

NC(Cc1cc(I)c(O)c(I)c1)C(=O)O (stereo not given)
307 µM: HCT-15
inactive: SK-MEL-5 > 500 µM | UACC-257 293 µM | UO-31 > 500 µM | SN12C > 500 µM | UACC-62 > 279 µM | NCI-H522 44.5 µM | HOP-92 13.6 µM | SF-539 > 392 µM | IGROV-1 > 500 µM | HL-60 185 µM | CCRF-CEM 255 µM | LOX IMVI 209 µM | OVCAR-4 211 µM | HOP-62 > 500 µM | SNB-75 > 249 µM | HT-29 > 346 µM | COLO 205 263 µM

CCC(C)C(=O)c1c(O)c(C/C=C(\C)CCC=C(C)C)c(O)c2c(C(O)CC)cc(=O)oc12 (stereo not given)
active: NCI-H522 0.871 µM | CCRF-CEM 0.693 µM
inactive: SK-MEL-5 1.19 µM | UACC-257 2.21 µM | UO-31 2.24 µM | SN12C 1.71 µM | UACC-62 1.3 µM | M14 3.31 µM | HOP-92 1.63 µM | SF-539 1.67 µM | IGROV-1 2.68 µM | HL-60 1.46 µM | LOX IMVI 2.74 µM | OVCAR-4 2.11 µM | HOP-62 1.95 µM | SNB-75 1.49 µM | HT-29 1.27 µM | COLO 205 1.71 µM

NCCCCNCCCNC(=O)c1nc(-c2nc(CCN)sc2Cl)sc1Cl
inactive: SK-MEL-5 > 100 µM | UACC-257 > 100 µM | UO-31 > 100 µM | SN12C > 100 µM | UACC-62 > 100 µM | M14 70.1 µM | NCI-H522 21 µM | HOP-92 > 100 µM | SF-539 48.8 µM | IGROV-1 > 100 µM | HL-60 > 100 µM | CCRF-CEM 89.5 µM | OVCAR-4 29.9 µM | HOP-62 59.7 µM | SNB-75 72.9 µM | HT-29 > 100 µM | COLO 205 > 100 µM
> 100 µM: HCT-15

C=C1N(C)c2ccc(S(=O)(=O)c3ccc4c(c3)C(C)(C)C(=C)N4C)cc2C1(C)C
inactive: SK-MEL-5 17.5 µM | UACC-257 26.4 µM | 786-0 58.5 µM | UO-31 51.6 µM | SN12C 42.2 µM | UACC-62 29.1 µM | M14 31.2 µM | NCI-H522 20.7 µM | HOP-92 3.85 µM | SF-539 > 100 µM | IGROV-1 27.3 µM | HL-60 27.3 µM | CCRF-CEM 50.1 µM | OVCAR-4 35.3 µM | HOP-62 56.1 µM | SNB-75 16.3 µM | HT-29 47 µM | COLO 205 16.3 µM
59.7 µM: HCT-15

O=C(Nc1nc2c(=O)[nH]cnc2s1)c1ccccc1
> 100 µM: HCT-15
inactive: SK-MEL-5 > 100 µM | UACC-257 > 100 µM | 786-0 > 100 µM | UO-31 97.9 µM | SN12C > 100 µM | UACC-62 > 100 µM | NCI-H522 > 100 µM | HOP-92 49.1 µM | SF-539 > 100 µM | IGROV-1 71.8 µM | HL-60 53.8 µM | CCRF-CEM > 100 µM | LOX IMVI 64 µM | OVCAR-4 > 100 µM | HOP-62 > 100 µM | SNB-75 44.2 µM | HT-29 50.4 µM | COLO 205 > 100 µM

CC1C2CC(C(C3C(=O)C4CC3C(C)(C)C4C)C2=O)C1(C)C (stereo not given)
inactive: SK-MEL-5 > 100 µM | UACC-257 > 100 µM | 786-0 > 100 µM | UO-31 > 100 µM | SN12C > 100 µM | UACC-62 > 100 µM | M14 > 100 µM | NCI-H522 > 100 µM | HOP-92 > 100 µM | SF-539 > 100 µM | IGROV-1 > 100 µM | HL-60 > 100 µM | CCRF-CEM > 100 µM | OVCAR-4 > 100 µM | HOP-62 > 100 µM | SNB-75 > 100 µM | HT-29 > 100 µM | COLO 205 > 100 µM
